Reference: patent publication US11802110B2, “2-amino-N-(arylsulfinyl)-acetamide compounds as inhibitors of bacterial aminoacyl-tRNA synthetase” (priority 2016, dated 2023)
Converted amounts (≈) assume the structure as drawn. Like-named read-outs stand apart in the source and are kept apart here.

Key:
E. Coli LeuRS = E. Coli LeuRS (Escherichia coli (strain K12), UniProt P07813); assay: Study 2 - Isothermal titration calorimetry (ITC); type: binding; conditions: 25° C., pH 7.5, mean ± SD
Experimental: Escherichia coli BL21(DE3) cells transformed with plasmid pQE-60 containing the open-reading frame sequence of one targeted aaRS (i.e., LeuRS) were induced with 1 mM IPTG (isopropyl β-D-1-thiogalactopyranoside) for 3 hours at 37° C. Bacterial cells were harvested and lysed with 20 mM HEPES (4-(2-hydroxyethyl)-1-piperazinylethane-sulfonic acid) (pH 7.5), 300 mM NaCl, 15 mM imidazole and 1 mM DTT (1,4-dithio-D-threitol). The pathogenic aaRS was first purified by nickel affinity standard chromatography. The eluted protein was concentrated and then further purified by gel filtration using 50 mM HEPES (pH 7.5), 150 mM NaCl buffer.
ITC studies were carried out using a Microcal ITC200 instrument (GE Healthcare). Protein concentration was determined by spectrophotometry by measuring the absorbance at 280 nm using a theoretical molar extinction coefficient of 169,140 M^−1cm^−1. Ligand stock solutions were prepared in DMSO at 62.5 mM concentration. The titrations were performed at 25° C. with 7.5-100 μM E. Coli LeuRS in 50 mM HEPES, 150 mM NaCl, pH 7.5 buffer containing 1% DMSO (v/v). The protein solution in the 280 μL sample cell was titrated with the inhibitor solution (diluted to 75-3000 μM in the same buffer as the protein) using 1-2 μL injections every 120-140 seconds. All titrations were repeated at least two times. To correct for heats of dilution and mixing, the final baseline consisting of small peaks of identical size at the end of each experiment was subtracted. The experimental data were fitted to a theoretical titration curve (one site model) using MicroCal Origin 7 SR4 software.
Note that Compounds R-4.1 and S-4.1 (in Table 15, below) correspond to Compounds V-i and V-ii (in Tables 13 and 14, above), respectively.

[1] = test system: Acinetobacter baumannii B1931 clinical isolate; assay: Study 4 - MIC by broth micro-dilution (CLSI); type: cell-based; conditions: Acinetobacter baumannii
Experimental: (§1) Minimum Inhibitory Concentrations (MICs) were determined by the broth micro-dilution method performed according to Clinical Laboratory Standards Institute guidelines. For testing, 5 mg/mL DMSO solutions were prepared by dissolving solids in DMSO. Standard antibiotics were prepared according to CLSI guidelines as 5 mg/mL stock solutions. Upon DMSO stock solutions preparation, the working solutions in MH media were prepared by adding 38.4 μL of stock solution to 1461.6 μL of MH media. Out of these working solutions 100 μL were transferred to wells in the third column of 96-well assay plates. Assay plates were previously filled with 50 μL of MH media in all wells except for the wells in the third column. Upon compounds and antibiotics addition, 50 μL was transferred from the third to the fourth column, then from the fourth to the fifth and so on.
(§2) MIC value was determined by visual inspection of bacterial growth within 96-well plates. The first column in which there was no visible growth of bacteria was determined as MIC value for compound or antibiotic tested in that particular row. ATCC strains were used as reference strains for which there is a determined value of MIC values for standard antibiotics. The assay is considered valid when MIC values for standard antibiotics are within CLSI designated range for ATCC strain tested.

[2] = test system: Enterobacter cloacae B1966 clinical isolate; assay: Study 4 - MIC by broth micro-dilution (CLSI); type: cell-based; conditions: Enterobacter cloacae
Experimental: as §1, §2

[3] = test system: Escherichia coli ATCC 25922; assay: Study 4 - MIC by broth micro-dilution (CLSI); type: cell-based; conditions: Escherichia coli, ATCC25922
Experimental: as §1, §2

[4] = test system: Haemophilus influenzae ATCC 49247; assay: Study 4 - MIC by broth micro-dilution (CLSI); type: cell-based; conditions: Haemophilus influenzae, ATCC49247
Experimental: as §1, §2

[5] = test system: Klebsiella pneumoniae ATCC 700603; assay: Study 4 - MIC by broth micro-dilution (CLSI); type: cell-based; conditions: Klebsiella pneumoniae, ATCC700603
Experimental: as §1, §2

[6] = test system: Pseudomonas aeruginosa ATCC 27853; assay: Study 4 - MIC by broth micro-dilution (CLSI); type: cell-based; conditions: Pseudomonas aeruginosa, ATCC27853
Experimental: as §1, §2

[7] = test system: Escherichia coli ATCC 25922 TolC deficient mutant (E. coli EFFLUX del); assay: microbe, parasite or virus in culture; type: cell-based; conditions: Escherichia coli, ATCC25922
Experimental: as §1, §2

[8] = Human cell viability (cytotoxicity), ATP levels by CellTiter-Glo; type: cell-based; conditions: HepG2 cells (ATCC HB-8065), 24 hours incubation, read-out: IC50 (μg/mL), Cytotoxicity in HepG2 ATCC HB-8065 Cell Line
Experimental: Compounds were assessed for potential non-specific cytotoxic effects against a human hepatic cell line (HepG2 ATCC HB-8065). 96-well plates were seeded with HepG2 cells in concentration of 15,000 cells per well in 100 μL of MEM growth media completed with 1% NEAA and 1% sodium pyruvate. Border wells were filled with 100 μL of sterile PBS. Two days upon cells incubation, the compounds were added. Compound dilutions were prepared in 96-well V-bottom plate in pure DMSO. Growth media from 5 plates were aspirated and replaced with 98.7 μL of fresh growth media. 1.28 μL of compounds prepared in V-bottom plates were transferred with multichannel pipette into test plates (78.1× dilution). Final DMSO concentration was 1.28% per well. In control wells, 1.28 μL of DMSO was added in 98.7 μL of media. Compounds were tested in duplicates. Cells were incubated with compounds for 24 hours when cell viability was assessed by measuring ATP levels. ATP levels were measured by adding 50 μL of CellTiter-Glo reagent to each well and after 5 minutes of incubation luminescence was measured with SpectraMax i3. The potential effect of tested compounds on cell viability was determined by comparing the signal obtained in presence of different concentrations of the compounds with those obtained in the presence of DMSO only. The potential effects were then calculated and presented as IC50 values (μg/mL).

[9] = G = H. influenzae ATCC 49247, read-out: MIC

Sequence of E. Coli LeuRS (P07813 whole entry): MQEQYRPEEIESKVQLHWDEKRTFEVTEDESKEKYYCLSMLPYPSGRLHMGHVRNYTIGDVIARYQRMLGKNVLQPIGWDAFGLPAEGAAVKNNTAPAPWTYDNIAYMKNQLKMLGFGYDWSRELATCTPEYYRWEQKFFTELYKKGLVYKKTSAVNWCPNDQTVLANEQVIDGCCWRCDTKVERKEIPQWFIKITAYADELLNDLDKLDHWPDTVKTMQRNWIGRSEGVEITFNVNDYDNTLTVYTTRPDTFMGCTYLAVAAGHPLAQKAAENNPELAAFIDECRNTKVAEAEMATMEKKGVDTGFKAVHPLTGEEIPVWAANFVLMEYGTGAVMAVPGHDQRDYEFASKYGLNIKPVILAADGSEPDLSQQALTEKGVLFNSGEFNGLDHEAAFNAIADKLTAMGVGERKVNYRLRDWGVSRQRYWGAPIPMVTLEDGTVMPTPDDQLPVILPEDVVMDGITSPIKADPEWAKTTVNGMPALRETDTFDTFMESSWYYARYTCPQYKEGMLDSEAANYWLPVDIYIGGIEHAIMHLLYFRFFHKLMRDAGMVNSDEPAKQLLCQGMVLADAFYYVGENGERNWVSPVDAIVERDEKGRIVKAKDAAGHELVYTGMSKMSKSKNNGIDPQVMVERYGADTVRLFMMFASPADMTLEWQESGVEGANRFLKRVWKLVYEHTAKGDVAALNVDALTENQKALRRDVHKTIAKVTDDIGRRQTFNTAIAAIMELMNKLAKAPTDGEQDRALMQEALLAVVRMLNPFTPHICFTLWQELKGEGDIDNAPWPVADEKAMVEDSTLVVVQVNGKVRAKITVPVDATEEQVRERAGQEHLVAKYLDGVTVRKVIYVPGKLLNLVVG

Row | SMILES | Kd (E. Coli LeuRS) [nM] | ΔG (E. Coli LeuRS) [kcal/mol] | ΔH (E. Coli LeuRS) [kcal/mol] | MIC [1] [µg/mL] | MIC [2] [µg/mL] | MIC [3] [µg/mL] | MIC [4, 9] [µg/mL] | MIC [5] [µg/mL] | MIC [6] [µg/mL] | MIC [7] [µg/mL] | IC50 at 24 h [8] [µg/mL] | MIC [4] [µg/mL]
1 | CC(C)CC(N)C(=O)N[S+]([O-])c1cccc(-c2ccccc2)c1 (stereo not drawn) [4.17] | 4.47 ± 0.04 | -11.39 ± 0.01 | -9.72 ± 0.22 | > 64 | > 64 | > 64 | > 64 | > 64 | > 64 | 64 (≈ 194 µM) | 47.7 (≈ 144 µM) | –
2 | C#Cc1cccc([S+]([O-])NC(=O)C(N)CC(C)C)c1 (stereo not drawn) [4.27] | 3.69 ± 0.05 | -11.50 ± 0.00 | -8.71 ± 1.08 | > 64 | 8 (≈ 28.7 µM) | 4 (≈ 14.4 µM) | 16 (≈ 57.5 µM) | 32 (≈ 115 µM) | > 64 | 2 (≈ 7.18 µM) | > 64 | –
3 | CC(C)C[C@H](N)C(=O)N[S@@+]([O-])c1ccccc1 (single isomer, unassigned) [S-4.1] | 9130 ± 2720 | -6.89 ± 0.16 | -2.33 ± 0.13 | > 64 | > 64 | 64 (≈ 252 µM) | > 64 | > 64 | > 64 | 64 (≈ 252 µM) | > 64 | –
4 | CC(C)CC(N)C(=O)N[S+]([O-])c1ccccc1Cl (stereo not drawn) [4.32] | 4.61 ± 0.06 | -11.37 ± 0.01 | -10.62 ± 0.25 | 16 (≈ 55.4 µM) | 16 (≈ 55.4 µM) | 4 (≈ 13.9 µM) | 32 (≈ 111 µM) | 16 (≈ 55.4 µM) | > 64 | 8 (≈ 27.7 µM) | > 64 | –
5 | CC(C)CC(N)C(=O)N[S+]([O-])c1ccc(F)cc1 (stereo not drawn) [4.29] | 9.14 ± 0.3 | -10.96 ± 0.01 | -10.95 ± 0.18 | 16 (≈ 58.7 µM) | 16 (≈ 58.7 µM) | 8 (≈ 29.4 µM) | 32 (≈ 117 µM) | 64 (≈ 235 µM) | > 64 | 16 (≈ 58.7 µM) | > 64 | –
6 | CC(C)CC(N)C(=O)N[S+]([O-])c1ccccc1F (stereo not drawn) [4.31] | 6.78 ± 1.73 | -11.15 ± 0.16 | -12.97 ± 2.04 | 4 (≈ 14.7 µM) | 4 (≈ 14.7 µM) | 2 (≈ 7.34 µM) | 8 (≈ 29.4 µM) | 2 (≈ 7.34 µM) | 32 (≈ 117 µM) | 2 (≈ 7.34 µM) | > 64 | –
7 | CC(C)CC(N)C(=O)N[S+]([O-])c1cccc(C(F)(F)F)c1 (stereo not drawn) [4.18] | 6.06 ± 0.49 | -11.20 ± 0.06 | -7.03 ± 0.14 | > 64 | > 64 | 64 (≈ 199 µM) | > 64 | > 64 | > 64 | 16 (≈ 49.6 µM) | > 64 | –
8 | COC(=O)c1cccc([S+]([O-])NC(=O)C(N)CC(C)C)c1 (stereo not drawn) [4.21] | 6.61 ± 0.83 | -11.16 ± 0.07 | -8.23 ± 0.43 | > 64 | > 64 | 32 (≈ 102 µM) | > 64 | > 64 | > 64 | 32 (≈ 102 µM) | > 64 | –
9 | CC(C)C[C@H](N)C(=O)N[S@+]([O-])c1ccccc1 (single isomer, unassigned) [R-4.1, 2,2,2-trifluoroacetate] | 3.86 ± 0.24 | -11.48 ± 0.04 | -11.92 ± 0.34 | 8 (≈ 31.5 µM) | 4 (≈ 15.7 µM) | 2 (≈ 7.86 µM) | – | 8 (≈ 31.5 µM) | 32 (≈ 126 µM) | 2 (≈ 7.86 µM) | > 64 | 16 (≈ 62.9 µM)
10 | CC(C)CC(N)C(=O)N[S+]([O-])c1cccc(F)c1F (stereo not drawn) [4.34] | 288 ± 42.9 | -8.93 ± 0.08 | -9.90 ± 0.40 | 2 (≈ 6.89 µM) | 1 (≈ 3.44 µM) | 0.5 (≈ 1.72 µM) | 4 (≈ 13.8 µM) | 1 (≈ 3.44 µM) | 32 (≈ 110 µM) | 0.25 (≈ 0.861 µM) | > 64 | –
11 | CC(C)CC(N)C(=O)N[S+]([O-])c1cc(F)cc(F)c1 (stereo not drawn) [4.35] | 16.4 ± 2.72 | -10.63 ± 0.10 | -9.97 ± 0.10 | > 64 | 64 (≈ 220 µM) | 16 (≈ 55.1 µM) | > 64 | > 64 | > 64 | 16 (≈ 55.1 µM) | > 64 | –
12 | CC(C)C[C@H](N)C(=O)N[S@+]([O-])c1cccc(Cl)c1 [R-4.12] | 1.48 ± 0.08 | -11.96 ± 0.12 | -10.75 ± 1.06 | 32 (≈ 111 µM) | 8 (≈ 27.7 µM) | 2 (≈ 6.93 µM) | 8 (≈ 27.7 µM) | 32 (≈ 111 µM) | > 64 | 2 (≈ 6.93 µM) | > 64 | –
